# Biological target: T1, KRasG12C (Homo sapiens, UniProt P01116, G12C)
# T1 construct: biotin (biotinylated); made in house
# Test: KRasG12C functional assay (HTRF/FRET nucleotide exchange and Raf RBD binding)
# Type: biochemical
# Details: GDP loaded biotinylated KRasG12C, samples incubated for 4 hrs, FRET readout; single experiment or average of two or more; read-out: KRasG12C functional assay IC50
# Protocol: All enzyme and substrate solutions were prepared in assay buffer containing 20 mM HEPES (pH 7.5), 5 mM MgCl2, 150 mM NaCl, and 0.01% Tween 20. […] In a separate mix 20 nM GST-Raf Ras binding domain (GST-Raf RBD, purified in house) and 4 μg/ml anti-GST XL665 antibody (Cisbio) was prepared in assay buffer containing 50 mM Potassium Fluoride and 0.05 mg/ml BSA and equilibrated for 4 hours before adding 0.6 μM Guanosine 5′-[γ-thio]triphosphate (GTPγS, Sigma) and 0.08 μM SOS (purified in house). 5 μl of the GST-RAF RBD mix was then dispensed into each well of the assay plate. […] This is detected simultaneously via the specific binding interaction between active GTPγS KRas^G12C with GST-Raf RBD which brings the europium and XL665 into close proximity enabling an increased FRET signal to be detected on a Pherastar (BMG) plate reader equipped with the HTRF filter module. […] IC50 values were calculated from normalised dose-response response FRET data curve fitted in Genedata screener (Basel, Switzerland).
# T1 sequence (P01116 1-188 isoform P01116-2 G12C): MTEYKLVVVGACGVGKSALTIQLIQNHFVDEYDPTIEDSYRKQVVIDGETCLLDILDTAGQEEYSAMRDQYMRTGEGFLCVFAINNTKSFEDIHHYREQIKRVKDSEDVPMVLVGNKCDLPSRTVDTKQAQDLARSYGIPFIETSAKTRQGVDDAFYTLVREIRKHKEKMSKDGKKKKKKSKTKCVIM
row,Structure (SMILES),IC50 [nM]
1,"C=CC(=O)N1CCN2C(=O)c3c(O)cc(-c4c(O)cccc4F)c(Cl)c3OC[C@H]2C1 [Example 6, (12aR)-10-chloro-9-(2-fluoro-6-hydroxyphenyl)-7-hydroxy-2-(prop-2-enoyl)-1,2,3,4,12,12a-hexahydro-6H-pyrazino[2,1-c][1,4]benzoxazepin-6-one]",103
2,"C=CC(=O)N1CCN2Cc3c(c(Cl)c(-c4c(O)cccc4F)n4cnnc34)OC[C@H]2C1 (single isomer, unassigned) [Example 71]",539
3,"C=CC(=O)N1CCN2Cc3cc(C#N)c(-c4c(C)cccc4O)c(Cl)c3OC[C@H]2C1 (single isomer, unassigned) [Example 40]",4620
4,"C=CC(=O)N1CCN2Cc3c(c(Cl)c(-c4c(O)cccc4F)[nH]c3=O)OC[C@H]2C1 [Example 69, (6aR)-4-Chloro-3-(2-fluoro-6-hydroxyphenyl)-8-(prop-2-enoyl)-2,6,6a,7,8,9,10,12-octahydro-1H-pyrazino[2,1-c]pyrido[3,4-f][1,4]oxazepin-1-one]",618
5,"C=CC(=O)N1CCN2Cc3c(OCCN(C)C)cc(-c4c(O)cccc4Cl)c(F)c3OC[C@H]2C1 (single isomer, unassigned) [Example 115]",55
6,"C=CC(=O)N1CCN2Cc3cc(F)c(-c4c(O)cccc4CC)c(F)c3OC[C@H]2C1 (single isomer, unassigned) [Example 50]",99300
7,"C=CC(=O)N1CCN2Cc3cc(C#N)c(-c4c(O)cccc4F)c(Cl)c3OC[C@H]2C1 (single isomer, unassigned) [Example 22]",2580
8,"C=CC(=O)N1CCN2Cc3cc(COC)c(-c4c(O)cccc4Cl)c(Cl)c3OC[C@H]2C1 [Example 114, 1-[(12aR)-10-Chloro-9-(2-chloro-6-hydroxyphenyl)-8-(methoxymethyl)-3,4,12,12a-tetrahydro-6H-pyrazino[2,1-c][1,4]benzoxazepin-2(1H)-yl]prop-2-en-1-one]",83
9,"C=CC(=O)N1CCN2Cc3c(c(Cl)c(-c4c(O)cccc4F)n4cnnc34)OC[C@H]2C1 (single isomer, unassigned) [Example 70]",19000
10,"C=CC(=O)N1CCN2Cc3c(OCCN(C)C)cc(-c4c(O)cccc4Cl)c(F)c3OC[C@H]2C1 (single isomer, unassigned) [Example 116]",53
11,"C=CC(=O)N1CCN2C(=O)c3cc(F)c(-c4c(O)cccc4F)c(Cl)c3OC[C@H]2C1 (single isomer, unassigned) [Example 12]",25200
12,"C#Cc1c2c(cc(Cl)c1-c1c(C)cccc1O)CN1CCN(C(=O)C=C)C[C@@H]1CO2 (single isomer, unassigned) [Example 62]",15700
13,"C=CC(=O)N1CCN2Cc3cc(C#N)c(-c4c(O)cccc4F)c(Cl)c3OC[C@H]2C1 (single isomer, unassigned) [Example 23]",105
14,"C=CC(=O)N1CCN2C(=O)c3ccc(-c4c(C)ccc5[nH]ncc45)c(Cl)c3N(C)C[C@H]2C1 (single isomer, unassigned) [Example 36]",98200
15,"C#Cc1c2c(cc(Cl)c1-c1c(C)cccc1O)CN1CCN(C(=O)C=C)C[C@@H]1CO2 (single isomer, unassigned) [Example 63]",120
16,"C=CC(=O)N1CCN2Cc3cc(F)c(-c4c(O)cccc4CC)c(F)c3OC[C@H]2C1 (single isomer, unassigned) [Example 51]",542
17,"C=CC(=O)N1CCN2Cc3c(C#N)cc(-c4c(O)cccc4F)c(Cl)c3OC[C@H]2C1 [Example 16, (12aR)-10-Chloro-9-(2-fluoro-6-hydroxyphenyl)-2-(prop-2-enoyl)-1,2,3,4,12,12a-hexahydro-6H-pyrazino[2,1-c][1,4]benzoxazepine-7-carbonitrile]",430
18,"C=CC(=O)N1CCN2Cc3c(Cl)nc(-c4c(O)cccc4F)c(Cl)c3OC[C@H]2C1 [Example 68, 1-[(6aR)-1,4-Dichloro-3-(2-fluoro-6-hydroxyphenyl)-6a,7,9,10-tetrahydro-12H-pyrazino[2,1-c]pyrido[3,4-f][1,4]oxazepin-8(6H)-yl]prop-2-en-1-one]",790
19,"C=CC(=O)N1CCN2Cc3cc(OCc4ccncc4)c(-c4c(O)cccc4Cl)c(F)c3OC[C@H]2C1 (single isomer, unassigned) [Example 104]",27
20,"C=CC(=O)N1CCN2Cc3cc(C#CCN(C)C)c(-c4c(O)cccc4Cl)c(F)c3OC[C@H]2C1 (single isomer, unassigned) [Example 102]",28
21,"C=CC(=O)N1CCN2Cc3cc(Cl)c(-c4c(C)cccc4O)c(F)c3OC[C@H]2C1 (single isomer, unassigned) [Example 60]",15900

row,Structure (SMILES),IC50 [nM]
1,"C=CC(=O)N1CCN2Cc3cc(F)c(-c4c(C)ccc5[nH]cnc45)c(Cl)c3OC[C@H]2C1 (single isomer, unassigned) [Example 18]",28700
2,"C=CC(=O)N1CCN2Cc3c(c(Cl)c(-c4c(O)cccc4F)c4cnn(C)c34)OC[C@H]2C1 (single isomer, unassigned) [Example 72]",133
3,"C=CC(=O)N1CCN2Cc3cc(OC)c(-c4c(O)cccc4F)c(Cl)c3OC[C@H]2C1 (single isomer, unassigned) [Example 30]",90500
4,"C=CC(=O)N1CCN2Cc3cc(OC(F)F)c(-c4c(O)cccc4Cl)c(Cl)c3OC[C@H]2C1 (single isomer, unassigned) [Example 98]",11
5,"C#Cc1c2c(cc(F)c1-c1c(C)cccc1O)CN1CCN(C(=O)C=C)C[C@@H]1CO2 (single isomer, unassigned) [Example 64]",37100
6,"C#Cc1nc(-c2c(O)cccc2Cl)c(Cl)c2c1CN1CCN(C(=O)C=C)C[C@@H]1CO2 (single isomer, unassigned) [Example 120]",51
7,"C=CC(=O)N1CCN2Cc3cc(F)c(-c4c(O)ccc(F)c4F)c(Cl)c3OC[C@H]2C1 (single isomer, unassigned) [Example 39]",123
8,"C=CC(=O)N1CCN2Cc3c(c(Cl)c(-c4c(O)cccc4F)c4cn(C)nc34)OC[C@H]2C1 (single isomer, unassigned) [Example 74]",135
9,"C=CC(=O)N1CCN2Cc3cc(F)c(-c4c(C)ccc5cc[nH]c(=O)c45)c(Cl)c3OC[C@H]2C1 (single isomer, unassigned) [Example 28]",17000
10,"C=CC(=O)N1CCN2Cc3cc(OCCN4CCCCC4)c(-c4c(O)cccc4Cl)c(F)c3OC[C@H]2C1 (single isomer, unassigned) [Example 108]",64
11,"C=CC(=O)N1CCN2Cc3cc(OC)c(-c4c(O)cccc4F)c(Cl)c3OC[C@H]2C1 (single isomer, unassigned) [Example 31]",279
12,"C=CC(=O)N1CCN2Cc3c(-n4ccnc4)cc(-c4c(O)cccc4F)c(Cl)c3OC[C@H]2C1 [Example 15, 1-[(12aR)-10-Chloro-9-(2-fluoro-6-hydroxyphenyl)-7-(1H-imidazol-1-yl)-3,4,12,12a-tetrahydro-6H-pyrazino[2,1-c][1,4]benzoxazepin-2(1H)-yl]prop-2-en-1-one]",1280
13,"C=CC(=O)N1CCN2Cc3c(c(Cl)c(-c4c(O)cccc4F)c4cn(C)nc34)OC[C@H]2C1 (single isomer, unassigned) [Example 75]",50800
14,"C=CC(=O)N1CCN2Cc3cc(Cl)c(-c4c(O)cccc4F)c(Cl)c3OC[C@H]2C1 (single isomer, unassigned) [Example 26]",1000
15,"C=CC(=O)N1CCN2Cc3c(OC)cc(-c4c(O)cccc4F)c(Cl)c3OC[C@H]2C1 [Example 5, 1-[(12aR)-10-Chloro-9-(2-fluoro-6-hydroxyphenyl)-7-methoxy-3,4,12,12a-tetrahydro-6H-pyrazino[2,1-c][1,4]benzoxazepin-2(1H)-yl]prop-2-en-1-one]",157
16,"C=CC(=O)N1CCN2C(=O)c3cc(C)c(-c4c(O)cccc4F)c(Cl)c3OC[C@H]2C1 (single isomer, unassigned) [Example 25]",68
17,"C=CC(=O)N1CCN2Cc3cc(F)c(-c4c(C)ccc5cc[nH]c(=O)c45)c(Cl)c3OC[C@H]2C1 (single isomer, unassigned) [Example 29]",164
18,"C=CC(=O)N1CCN2Cc3c(c(Cl)c(-c4c(O)cccc4F)c4cnn(C)c34)OC[C@H]2C1 (single isomer, unassigned) [Example 73]",23000
19,"C=CC(=O)N1CCN2C(=O)c3ccc(-c4c(C)ccc5[nH]ncc45)c(Cl)c3N(C)C[C@H]2C1 (single isomer, unassigned) [Example 37]",273
20,"C=CC(=O)N1CCN2C(=O)c3ccc(-c4c(C)ccc5[nH]ncc45)c(Cl)c3NC[C@H]2C1 (single isomer, unassigned) [Example 33]",998

# Same assay, conditions: KRasG12C functional assay IC50, GDP loaded biotinylated KRasG12C, samples incubated for 4 hrs, FRET readout; single experiment or average of two or more
row,Structure (SMILES),IC50 [nM]
1,"C=CC(=O)N1CCN2Cc3cc(C#N)c(-c4c(O)cccc4Cl)c(F)c3OC[C@H]2C1 (single isomer, unassigned) [Example 55]",16
2,"C=CC(=O)N1CCN2Cc3cc(C#N)c(-c4c(O)cccc4Cl)c(F)c3OC[C@H]2C1 (single isomer, unassigned) [Example 54]",339
3,"C=CC(=O)N1CCN2Cc3cc(OC(F)F)c(-c4c(O)cccc4Cl)c(F)c3OC[C@H]2C1 (single isomer, unassigned) [Example 94]",14
4,"C=CC(=O)N1CCN2C(=O)c3ccc(-c4c(C)ccc5[nH]ncc45)c(Cl)c3OC[C@H]2C1 (single isomer, unassigned) [Example 7]",82000

# From patent US12410187B2, “Fused tricyclic compounds useful as anticancer agents” (ASTRAZENECA AB, priority 2019, dated 2025)
